Test results: patent publication US12378224B2 (Dong-A Socio Holdings Co., Ltd., priority 2016, dated 2025)

Target: human MER (528-end) (Homo sapiens (Human), UniProt Q12866)
Experiment: HTRF Kinase Activity Biochemical Assay (KinEASE-TK)
Details: 10 uM ATP
How it was run: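 Recombinant human MER (528-end) phosphorylated biotin-TK peptide substrate, 1 h at room temperature. Reaction stopped with detection buffer containing 0.375 nM Eu3+-cryptate anti-TK antibody and 0.062 uM streptavidin-XL665, 1 h further. Activity taken as HTRF ratio 665/620 nm ×10,000, 340 nm excitation.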

human MER (528-end), sequence (Q12866 528-999 limits assumed): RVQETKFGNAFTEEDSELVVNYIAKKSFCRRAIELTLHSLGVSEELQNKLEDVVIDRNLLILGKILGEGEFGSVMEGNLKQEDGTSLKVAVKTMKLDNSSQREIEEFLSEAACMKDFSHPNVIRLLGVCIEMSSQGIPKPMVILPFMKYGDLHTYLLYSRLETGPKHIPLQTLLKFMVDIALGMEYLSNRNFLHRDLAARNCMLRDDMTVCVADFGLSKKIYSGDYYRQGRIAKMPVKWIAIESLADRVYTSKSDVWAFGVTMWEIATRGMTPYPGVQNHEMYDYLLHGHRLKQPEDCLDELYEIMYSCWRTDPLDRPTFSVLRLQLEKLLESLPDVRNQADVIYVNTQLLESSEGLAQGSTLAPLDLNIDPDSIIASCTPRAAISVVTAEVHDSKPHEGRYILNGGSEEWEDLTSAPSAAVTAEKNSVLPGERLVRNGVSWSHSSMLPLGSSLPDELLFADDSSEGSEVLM

Row | Structure (SMILES) | IC50 [nM]
1 | Cn1cc(-c2cnc(N)c(C(=O)N[C@@H]3CCN(C(=O)c4cccc(-c5cccc(NS(C)(=O)=O)c5)c4)C3)c2)cn1 [Example 481, (R)-2-amino-5-(1-methyl-1H-pyrazol-4-yl)-N-(1-(3′-(methylsulfonamido)-[1,1′-biphenyl]-3-carbonyl)pyrrolidin-3-yl)nicotinamide] | > 1000
2 | Cc1ccc(C(=O)N2CC[C@@H](NC(=O)c3cc(-c4cnn(C)c4)cnc3N)C2)cc1-c1ccccc1 [Example 482, (R)-2-amino-5-(1-methyl-1H-pyrazol-4-yl)-N-(1-(6-methyl-[1,1′-biphenyl]-3-carbonyl)pyrrolidin-3-yl)nicotinamide] | > 1000
3 | Cc1ccc(C(=O)N2CC[C@@H](NC(=O)c3cc(-c4cnn(C)c4)cnc3N)C2)cc1-c1ccccc1Cl [Example 483, (R)-2-amino-N-(1-(2′-chloro-6-methyl-[1,1′-biphenyl]-3-carbonyl)pyrrolidin-3-yl)-5-(1-methyl-1H-pyrazol-4-yl)nicotinamide] | > 1000
4 | Cc1ccc(C(=O)N2CC[C@@H](NC(=O)c3cc(-c4cnn(C)c4)cnc3N)C2)cc1-c1cccc(Cl)c1 [Example 484, (R)-2-amino-N-(1-(3′-chloro-6-methyl-[1,1′-biphenyl]-3-carbonyl)pyrrolidin-3-yl)-5-(1-methyl-1H-pyrazol-4-yl)nicotinamide] | > 1000
5 | Cn1cc(-c2cnc(N)c(C(=O)N[C@@H]3CCN(C(=O)c4ccc(-c5cc6ccccc6s5)cc4)C3)c2)cn1 [Example 490, (R)-2-amino-N-(1-(4-(benzo[b]thiophen-2-yl)benzoyl)pyrrolidin-3-yl)-5-(1-methyl-1H-pyrazol-4-yl)nicotinamide] | > 1000
6 | Cn1cc(-c2cnc(N)c(C(=O)N[C@@H]3CCN(C(=O)c4ccc(-c5ccc(N6CCOCC6)cc5)cc4)C3)c2)cn1 [Example 492, (R)-2-amino-5-(1-methyl-1H-pyrazol-4-yl)-N-(1-(4′-morpholino-[1,1′-biphenyl]-4-carbonyl)pyrrolidin-3-yl)nicotinamide] | > 1000
7 | Cn1cc(-c2cnc(N)c(C(=O)N[C@@H]3CCN(C(=O)c4ccc(-c5ccc(C(=O)N6CCOCC6)cc5)cc4)C3)c2)cn1 [Example 493, (R)-2-amino-5-(1-methyl-1H-pyrazol-4-yl)-N-(1-(4′-(morpholine-4-carbonyl)-[1,1′-biphenyl]-4-carbonyl)pyrrolidin-3-yl)nicotinamide] | > 1000
8 | CC1=C(C(=O)N2CC[C@@H](NC(=O)c3cc(-c4cnn(C)c4)cnc3N)C2)Cc2ccccc21 [Example 497, (R)-2-amino-N-(1-(3-methyl-1H-indene-2-carbonyl)pyrrolidin-3-yl)-5-(1-methyl-1H-pyrazol-4-yl)nicotinamide] | > 1000
9 | Cn1cc(-c2cnc(N)c(C(=O)N[C@@H]3CCN(C(=O)c4cccc5[nH]ccc45)C3)c2)cn1 [Example 504, (R)—N-(1-(1H-indole-4-carbonyl)pyrrolidin-3-yl)-2-amino-5-(1-methyl-1H-pyrazol-4-yl)nicotinamide] | > 1000
10 | Cn1cc(-c2cnc(N)c(C(=O)N[C@@H]3CCN(C(=O)c4ccc(-c5cnn(C6CCCC6)c5)cc4)C3)c2)cn1 [Example 508, (R)-2-amino-N-(1-(4-(1-cyclopentyl-1H-pyrazol-4-yl)benzoyl)pyrrolidin-3-yl)-5-(1-methyl-1H-pyrazol-4-yl)nicotinamide] | > 1000
11 | Cn1cc(-c2cnc(N)c(C(=O)N[C@@H]3CCN(C(=O)c4ccc(-c5cnn(C6CCOCC6)c5)cc4)C3)c2)cn1 [Example 509, (R)-2-amino-5-(1-methyl-1H-pyrazol-4-yl)-N-(1-(4-(1-(tetrahydro-2H-pyran-4-yl)-1H-pyrazol-4-yl)benzoyl)pyrrolidin-3-yl)nicotinamide] | > 1000
12 | Cn1cc(-c2cnc(N)c(C(=O)N[C@@H]3CCN(C(=O)c4ccc(-c5cnn(C6CCNCC6)c5)cc4)C3)c2)cn1 [Example 510, (R)-2-amino-5-(1-methyl-1H-pyrazol-4-yl)-N-(1-(4-(1-(piperidin-4-yl)-1H-pyrazol-4-yl)benzoyl)pyrrolidin-3-yl)nicotinamide] | > 1000
13 | Cn1cc(-c2cnc(N)c(C(=O)N[C@@H]3CCN(C(=O)c4cc5cc(-c6ccccc6)ccc5o4)C3)c2)cn1 [Example 512, (R)-2-amino-5-(1-methyl-1H-pyrazol-4-yl)-N-(1-(5-phenylbenzofuran-2-carbonyl)pyrrolidin-3-yl)nicotinamide] | > 1000
14 | Cn1cc(-c2cnc(N)c(C(=O)N[C@@H]3CCN(C(=O)c4cccc(O)c4)C3)c2)cn1 [Example 515, (R)-2-amino-N-(1-(3-hydroxybenzoyl)pyrrolidin-3-yl)-5-(1-methyl-1H-pyrazol-4-yl)nicotinamide] | > 1000
15 | Cc1nn(-c2ccccc2)c(C)c1-c1ccc(C(=O)N2CC[C@@H](NC(=O)c3cc(-c4cnn(C)c4)cnc3N)C2)cc1 [Example 519, (R)-2-amino-N-(1-(4-(3,5-dimethyl-1-phenyl-1H-pyrazol-4-yl)benzoyl)pyrrolidin-3-yl)-5-(1-methyl-1H-pyrazol-4-yl)nicotinamide] | > 1000

Other lines, results leading:

Row | IC50 [nM] | Structure (SMILES)
16 | > 1000 | Cn1cc(-c2cnc(N)c(C(=O)N[C@@H]3CCN(C(=O)c4cccc(-c5cnn(C6CCCC6)c5)c4)C3)c2)cn1 [Example 470, (R)-2-amino-N-(1-(3-(1-cyclopentyl-1H-pyrazol-4-yl)benzoyl)pyrrolidin-3-yl)-5-(1-methyl-1H-pyrazol-4-yl)nicotinamide]
17 | > 1000 | Cn1cc(-c2cnc(N)c(C(=O)N[C@@H]3CCN(C(=O)c4cccc(-c5cccnc5)c4)C3)c2)cn1 [Example 472, (R)-2-amino-5-(1-methyl-1H-pyrazol-4-yl)-N-(1-(3-(pyridin-3-yl)benzoyl)pyrrolidin-3-yl)nicotinamide]
18 | > 1000 | Cn1cc(-c2cnc(N)c(C(=O)N[C@@H]3CCN(C(=O)c4cccc(-c5ccncc5)c4)C3)c2)cn1 [Example 473, (R)-2-amino-5-(1-methyl-1H-pyrazol-4-yl)-N-(1-(3-(pyridin-4-yl)benzoyl)pyrrolidin-3-yl)nicotinamide]
19 | > 1000 | Cn1cc(-c2cnc(N)c(C(=O)N[C@@H]3CCN(C(=O)c4cccc(-c5cc6ccccc6s5)c4)C3)c2)cn1 [Example 474, (R)-2-amino-N-(1-(3-(benzo[b]thiophen-2-yl)benzoyl)pyrrolidin-3-yl)-5-(1-methyl-1H-pyrazol-4-yl)nicotinamide]
20 | > 1000 | CN1CCN(c2cccc(-c3cccc(C(=O)N4CC[C@@H](NC(=O)c5cc(-c6cnn(C)c6)cnc5N)C4)c3)c2)CC1 [Example 476, (R)-2-amino-5-(1-methyl-1H-pyrazol-4-yl)-N-(1-(3′-(4-methylpiperazin-1-yl)-[1,1′-biphenyl]-3-carbonyl)pyrrolidin-3-yl)nicotinamide]
21 | > 1000 | Cn1cc(-c2cnc(N)c(C(=O)N[C@@H]3CCN(C(=O)c4cccc(-c5ccccc5Cl)c4)C3)c2)cn1 [Example 478, (R)-2-amino-N-(1-(2′-chloro-[1,1′-biphenyl]-3-carbonyl)pyrrolidin-3-yl)-5-(1-methyl-1H-pyrazol-4-yl)nicotinamide]
22 | > 1000 | Cn1cc(-c2cnc(N)c(C(=O)N[C@@H]3CCN(C(=O)c4cccc(-c5cccc(Cl)c5)c4)C3)c2)cn1 [Example 479, (R)-2-amino-N-(1-(3′-chloro-[1,1′-biphenyl]-3-carbonyl)pyrrolidin-3-yl)-5-(1-methyl-1H-pyrazol-4-yl)nicotinamide]
23 | > 1000 | Cn1cc(-c2cnc(N)c(C(=O)N[C@@H]3CCN(C(=O)c4cccc(-c5ccnc(N6CCNCC6)c5)c4)C3)c2)cn1 [Example 480, (R)-2-amino-5-(1-methyl-1H-pyrazol-4-yl)-N-(1-(3-(2-(piperazin-1-yl)pyridin-4-yl)benzoyl)pyrrolidin-3-yl)nicotinamide]
24 | 100 to 1000 | Cc1cc(C(=O)N2CC[C@@H](NC(=O)c3cc(-c4cnn(C)c4)cnc3N)C2)c(N)c(-c2ccccc2)c1 [Example 485, (R)-2-amino-N-(1-(2-amino-5-methyl-[1,1′-biphenyl]-3-carbonyl)pyrrolidin-3-yl)-5-(1-methyl-1H-pyrazol-4-yl)nicotinamide]
25 | 100 to 1000 | Cc1nn(C)cc1-c1ccc(C(=O)N2CC[C@@H](NC(=O)c3cc(-c4cnn(C)c4)cnc3N)C2)cc1 [Example 488, (R)-2-amino-N-(1-(4-(1,3-dimethyl-1H-pyrazol-4-yl)benzoyl)pyrrolidin-3-yl)-5-(1-methyl-1H-pyrazol-4-yl)nicotinamide]
26 | 100 to 1000 | Cn1cc(-c2cnc(N)c(C(=O)N[C@@H]3CCN(C(=O)c4ccc(-c5ccnc(N6CCNCC6)c5)cc4)C3)c2)cn1 [Example 491, (R)-2-amino-5-(1-methyl-1H-pyrazol-4-yl)-N-(1-(4-(2-(piperazin-1-yl)pyridin-4-yl)benzoyl)pyrrolidin-3-yl)nicotinamide]
27 | 100 to 1000 | Cn1cc(-c2ccc(C(=O)N3CC[C@@H](NC(=O)c4cc(-c5cnn(C)c5)cnc4N)C3)cc2)cn1 [Example 506, (R)-2-amino-5-(1-methyl-1H-pyrazol-4-yl)-N-(1-(4-(1-methyl-1H-pyrazol-4-yl)benzoyl)pyrrolidin-3-yl)nicotinamide]
28 | 100 to 1000 | Cc1nn(C)c(C)c1-c1ccc(C(=O)N2CC[C@@H](NC(=O)c3cc(-c4cnn(C)c4)cnc3N)C2)cc1 [Example 507, (R)-2-amino-5-(1-methyl-1H-pyrazol-4-yl)-N-(1-(4-(1,3,5-trimethyl-1H-pyrazol-4-yl)benzoyl)pyrrolidin-3-yl)nicotinamide]
29 | 10 to 100 | Cc1c(-c2ccc(C(=O)N3CC[C@@H](NC(=O)c4cc(-c5cnn(C)c5)cnc4N)C3)cc2)cnn1C [Example 517, (R)-2-amino-N-(1-(4-(1,5-dimethyl-1H-pyrazol-4-yl)benzoyl)pyrrolidin-3-yl)-5-(1-methyl-1H-pyrazol-4-yl)nicotinamide]
30 | 100 to 1000 | Cc1sc(-c2ccc(C(=O)N3CC[C@@H](NC(=O)c4cc(-c5cnn(C)c5)cnc4N)C3)cc2)c(C)c1Br [Example 522, (R)-2-amino-N-(1-(4-(4-bromo-3,5-dimethylthiophen-2-yl)benzoyl)pyrrolidin-3-yl)-5-(1-methyl-1H-pyrazol-4-yl)nicotinamide]
